Ends that are not written are not given here.
Tests used:
microorganisms [1] = assay: Peptide activities: targeting/binding, antimicrobial, growth or phenotype altering (Tables 7, 8); format: cell-based; design: key: B: targeting/binding activity;; M: antimicrobial activity;; G: Growth or phenotype altering; conditions: peptides having multiple activities
microorganisms [2] = assay: Morphology, biofilm and growth disrupting peptides (Table 5); format: cell-based; design: key: A: Peptide aggregates; B: Less hyphal formation; Clumps; Diffuse clumps and small polyps; F: Diffuse growth; H: Thin; I: Growth inhibition; Microcolony formation; Rippled; Small polyps; Thick; W: Halo formation on top, microlonies on bottom
Description: In certain embodiments peptides that induce alterations in phenotype or other biological activities can also be used as antimicrobial effector moieties.

| Substance | Activities (microorganisms [1]) | Organism, effect (microorganisms [2]; E. faecalis) | Organism, effect (microorganisms [2]; MRSA) | Organism, effect (microorganisms [2]; S. epidermidis) | Organism, effect (microorganisms [2]; S. pneumoniae) | Organism, effect (microorganisms [2]; E. coli) | other results |
| --- | --- | --- | --- | --- | --- | --- | --- |
| PF-411: peptide having multiple activities (chain 1 WVAVAILLNIALQTQLT; chain 2 WVAVAILLNIALQTQLT; Peptide with targeting and/or antimicrobial activity) | G B |  |  |  |  |  | Organism, effect: C. jejuni (microorganisms [2]; C. jejuni): C. jejuni (D); Organism, effect: E. coli (microorganisms [2]; E. coli): E. coli (C); Organism, effect: E. faecalis (microorganisms [2]; E. faecalis): E. faecalis (D); Organism, effect: MRSA (microorganisms [2]; MRSA): MRSA (D); Organism, effect: P. aeruginosa (microorganisms [2]; P. aeruginosa): P. aeruginosa (A); Organism, effect: S. epidermidis (microorganisms [2]; S. epidermidis): S. epidermidis (C); Organism, effect: S. pneumoniae (microorganisms [2]; S. pneumoniae): S. pneumoniae (D) |
| PF-418: peptide having multiple activities (chain 1 FFLVHFYIRKRKGKVSIFLNYF; chain 2 FFLVHFYIRKRKGKVSIFLNYF; Peptide with targeting and/or antimicrobial activity) | G B |  |  |  |  |  | Organism, effect: C. jejuni (microorganisms [2]; C. jejuni): C. jejuni (D); Organism, effect: E. coli (microorganisms [2]; E. coli): E. coli (C); Organism, effect: E. faecalis (microorganisms [2]; E. faecalis): E. faecalis (D); Organism, effect: MRSA (microorganisms [2]; MRSA): MRSA (D); Organism, effect: S. epidermidis (microorganisms [2]; S. epidermidis): S. epidermidis (M); Organism, effect: S. pneumoniae (microorganisms [2]; S. pneumoniae): S. pneumoniae (D) |
| PF-431: peptide having multiple activities (chain 1 VAYAAICWW; chain 2 VAYAAICWW; Peptide with targeting and/or antimicrobial activity) | G B | E. faecalis (R) | MRSA (C) | S. epidermidis (M) | S. pneumoniae (R) |  | Organism, effect (microorganisms [2]; C. jejuni): C. jejuni (R) |
| PF-432: peptide having multiple activities (chain 1 FNGDSEFFLCIAF; chain 2 FNGDSEFFLCIAF; Peptide with targeting and/or antimicrobial activity) | G B | E. faecalis (D) | MRSA (M) | S. epidermidis (M) | S. pneumoniae (D) | E. coli (R) | Organism, effect (microorganisms [2]; C. jejuni): C. jejuni (D); Organism, effect (microorganisms [2]; P. aeruginosa): P. aeruginosa (A) |
| PF-439: peptide having multiple activities (chain 1 RVLVLKKFHGIMDGNRNVAVFFVGQ; chain 2 RVLVLKKFHGIMDGNRNVAVFFVGQ; Peptide with targeting and/or antimicrobial activity) | G B | E. faecalis (C) | MRSA (M) | S. epidermidis (C) | S. pneumoniae (R) | E. coli (R) |  |
| PF-440: peptide having multiple activities (MFIISPDLFNIAVILYILFFIHDILLLILS; Peptide with targeting and/or antimicrobial activity) | G B | E. faecalis (C) | MRSA (C) | S. epidermidis (C) | S. pneumoniae (R) | E. coli (R) |  |
| PF-443: peptide having multiple activities (KLLYFFNYFENLQQVHLLVQL; Peptide with targeting and/or antimicrobial activity) | G B |  | MRSA (C) |  | S. pneumoniae (C) | E. coli (R) |  |
| PF-450: peptide having multiple activities (HRNLIILQRTIFI; Peptide with targeting and/or antimicrobial activity) | G B | E. faecalis (C) | MRSA (C) |  | S. pneumoniae (C) |  |  |
| PF-451: peptide having multiple activities (MVNYIIGSYMLYREQNNNEALRKFDITLAM; Peptide with targeting and/or antimicrobial activity) | G B | E. faecalis (C) | MRSA (C) | S. epidermidis (C) | S. pneumoniae (C) | E. coli (R) |  |
| PF-454: peptide having multiple activities (MSVFVPVTNIFMFIMSPIFNVNLLHFKVYI; Peptide with targeting and/or antimicrobial activity) | G B | E. faecalis (C) | MRSA (C) | S. epidermidis (C) | S. pneumoniae (R) | E. coli (R) | Organism, effect (microorganisms [2]; P. aeruginosa): P. aeruginosa (H) |
| PF-458: peptide having multiple activities (ISLIIFIMLFVVALFKCITNYKHQS; Peptide with targeting and/or antimicrobial activity) | G B |  | MRSA (M) |  | S. pneumoniae (M) |  | Organism, effect (microorganisms [2]; P. aeruginosa): P. aeruginosa (H) |
| PF-460: peptide having multiple activities (MEHVLPFQNTPPNIVIIYKDFTHLKSITFS; Peptide with targeting and/or antimicrobial activity) | G B | E. faecalis (C) | MRSA (C) | S. epidermidis (C) | S. pneumoniae (R) | E. coli (H) |  |
| PF-465: peptide having multiple activities (KPVGKALEEIADGKIEPVVPKEYLG; Peptide with targeting and/or antimicrobial activity) | G B |  |  |  | S. pneumoniae (H) |  |  |
| PF-469: peptide having multiple activities (YKVNYNNIDNHFNTLRH; Peptide with targeting and/or antimicrobial activity) | G B | E. faecalis (D) | MRSA (D) | S. epidermidis (D) | S. pneumoniae (D) | E. coli (C) | Organism, effect (microorganisms [2]; C. jejuni): C. jejuni (D) |
| PF-474: peptide having multiple activities (MHRNLVLVKMEPIPHIMIIANQIGIIIEKA; Peptide with targeting and/or antimicrobial activity) | G B | E. faecalis (C) | MRSA (D) | S. epidermidis (C) | S. pneumoniae (D) | E. coli (C) | Organism, effect (microorganisms [2]; C. albicans): C. albicans (B); Organism, effect (microorganisms [2]; C. jejuni): C. jejuni (D); Organism, effect (microorganisms [2]; P. aeruginosa): P. aeruginosa (A) |
| PF-478: peptide having multiple activities (HLFILKSHLKPFPPFRYTYD; Peptide with targeting and/or antimicrobial activity) | G B |  | MRSA (H) | S. epidermidis (C) | S. pneumoniae (C) | E. coli (C) |  |
| PF-479: peptide having multiple activities (AYILKRREEKNK; Peptide with targeting and/or antimicrobial activity) | G B |  |  |  | S. pneumoniae (C) |  |  |
| PF-482: peptide having multiple activities (LVGYVRTSGTVRSYKIN; Peptide with targeting and/or antimicrobial activity) | G B |  |  |  | S. pneumoniae (S) |  |  |
| PF-516: peptide having multiple activities (ASKQASKQASKQASKQ; Peptide with targeting and/or antimicrobial activity) | G |  |  |  | S. pneumoniae (H) |  |  |
| PF-526: peptide having multiple activities (VLLLFIFQPFQKQLL-NH2) | G B |  | MRSA (C) | S. epidermidis (C) | S. pneumoniae (R) | E. coli (R) | Organism, effect (microorganisms [2]; C. albicans): C. albicans (C) |
| PF-537: peptide having multiple activities (LANDYYKKTKKSW; Peptide with targeting and/or antimicrobial activity) | G B |  |  |  | S. pneumoniae (C) |  |  |
| PF-539: peptide having multiple activities (SIILTKKKRRKIPLSIDSQIYKYTFKQ; Peptide with targeting and/or antimicrobial activity) | G B |  | MRSA (H) |  | S. pneumoniae (A) |  |  |
| PF-543: peptide having multiple activities (NILFGIIGFVVAMTAAVIVTAISIAK; Peptide with targeting and/or antimicrobial activity) | G B |  | MRSA (D) | S. epidermidis (D) | S. pneumoniae (D) | E. coli (C) | Organism, effect (microorganisms [2]; M. luteus): M. luteus (C); Organism, effect (microorganisms [2]; S. mutans): S. mutans (S) |
| PF-544: peptide having multiple activities (FGEKQMRSWWKVHWFHP; Peptide with targeting and/or antimicrobial activity) | G B | E. faecalis (R) | MRSA (D) | S. epidermidis (D) | S. pneumoniae (M) |  |  |
